Assay type in all cases: in vivo
Conditions in all cases: 312 h, evaluated after 13 days, 100=total damage to plant, 0=no damage to plant

Test [1] relates to Euphorbia heterophylla (EPHHL). The test can be described thus: Pre-emergence biological efficacy. The procedure:
(§1) Seeds of weeds and/or crops were sown in standard soil in pots (Amaranthus palmeri (AMAPA), Lolium perenne (LOLPE), Euphorbia heterophylla (EPHHL), Ipomoea hederacea (IPOHE), Setaria faberi (SETFA), Echinochloa crus-galli (ECHCG)). After cultivation for one day under controlled conditions in a glasshouse (at 24/19° C., day/night; 16 hours light), the plants were sprayed with an aqueous spray solution derived from the formulation of the technical active ingredient in a small amount of acetone and a special solvent and emulsifier mixture referred to as IF50 (11.12% Emulsogen EL360™+44.44% N-methylpyrrolidone+44.44% Dowanol DPM glycol ether), to create a 50 g/l solution which was then diluted using 0.2% Genapol XO80 as diluent to give the desired final dose of test compound.
(§2) The test plants were then grown under controlled conditions in the glasshouse (at 24/18° C., day/night; 15 hours light; 50% humidity) and watered twice daily. After 13 days the test was evaluated (100=total damage to plant; 0=no damage to plant).

Test [2] has as its system Ipomoea hederacea (IPOHE). Kind of test: Pre-emergence biological efficacy. As to the method: as §1, §2
Test [3] deals with Setaria faberi (SETFA). Kind of test: Pre-emergence biological efficacy. The procedure:
as §1, §2

Test [4] has as its system Lolium perenne (LOLPE). Kind of test: Pre-emergence biological efficacy. The procedure: as §1, §2
For test [5], the system named is Amaranthus palmeri (AMAPA). Kind of test: Pre-emergence biological efficacy. As to the method:
as §1, §2

The test system of test [6] is Echinochloa crus-galli (ECHCG). Kind of test: Pre-emergence biological efficacy. The procedure:
as §1, §2

Test [7] has as its system Euphorbia heterophylla (EPHHL). Kind of test: Post-emergence biological efficacy. The procedure:
as §1, with “Chenopodium album (CHEAL),” for “Lolium perenne (LOLPE),”, “(IPOHE), Eleusine indica (ELEIN), Lolium perenne (LOLPE), Digitaria sanguinalis (DIGSA),” for “(IPOHE),”, “14 days” for “one day”, “compound. The test plants were then grown under controlled conditions in the glasshouse (at 24/18° C., day/night; 15 hours light; 50% humidity) and watered twice daily. After 13 days the test was evaluated (100=total damage to plant; 0=no damage to plant).” for “compound.”

For test [8], the system named is Ipomoea hederacea (IPOHE). Kind of test: Post-emergence biological efficacy. As to the method:
as §1, with “Chenopodium album (CHEAL),” for “Lolium perenne (LOLPE),”, “(IPOHE), Eleusine indica (ELEIN), Lolium perenne (LOLPE), Digitaria sanguinalis (DIGSA),” for “(IPOHE),”, “14 days” for “one day”, “compound. The test plants were then grown under controlled conditions in the glasshouse (at 24/18° C., day/night; 15 hours light; 50% humidity) and watered twice daily. After 13 days the test was evaluated (100=total damage to plant; 0=no damage to plant).” for “compound.”

Test [9] deals with Setaria faberi (SETFA). The test can be described thus: Post-emergence biological efficacy. The procedure:
as §1, with “Chenopodium album (CHEAL),” for “Lolium perenne (LOLPE),”, “(IPOHE), Eleusine indica (ELEIN), Lolium perenne (LOLPE), Digitaria sanguinalis (DIGSA),” for “(IPOHE),”, “14 days” for “one day”, “compound. The test plants were then grown under controlled conditions in the glasshouse (at 24/18° C., day/night; 15 hours light; 50% humidity) and watered twice daily. After 13 days the test was evaluated (100=total damage to plant; 0=no damage to plant).” for “compound.”

Test [10] concerns Chenopodium album (CHEAL). Kind of test: Post-emergence biological efficacy. As to the method:
as §1, with “Chenopodium album (CHEAL),” for “Lolium perenne (LOLPE),”, “(IPOHE), Eleusine indica (ELEIN), Lolium perenne (LOLPE), Digitaria sanguinalis (DIGSA),” for “(IPOHE),”, “14 days” for “one day”, “compound. The test plants were then grown under controlled conditions in the glasshouse (at 24/18° C., day/night; 15 hours light; 50% humidity) and watered twice daily. After 13 days the test was evaluated (100=total damage to plant; 0=no damage to plant).” for “compound.”

Test [11] has as its system Digitaria sanguinalis (DIGSA). Kind of test: Post-emergence biological efficacy. As to the method: as §1, with “Chenopodium album (CHEAL),” for “Lolium perenne (LOLPE),”, “(IPOHE), Eleusine indica (ELEIN), Lolium perenne (LOLPE), Digitaria sanguinalis (DIGSA),” for “(IPOHE),”, “14 days” for “one day”, “compound. The test plants were then grown under controlled conditions in the glasshouse (at 24/18° C., day/night; 15 hours light; 50% humidity) and watered twice daily. After 13 days the test was evaluated (100=total damage to plant; 0=no damage to plant).” for “compound.”

The test system of test [12] is Lolium perenne (LOLPE). The test can be described thus: Post-emergence biological efficacy. The procedure: as §1, with “Chenopodium album (CHEAL),” for “Lolium perenne (LOLPE),”, “(IPOHE), Eleusine indica (ELEIN), Lolium perenne (LOLPE), Digitaria sanguinalis (DIGSA),” for “(IPOHE),”, “14 days” for “one day”, “compound. The test plants were then grown under controlled conditions in the glasshouse (at 24/18° C., day/night; 15 hours light; 50% humidity) and watered twice daily. After 13 days the test was evaluated (100=total damage to plant; 0=no damage to plant).” for “compound.”

Test [13] has as its system Amaranthus palmeri (AMAPA). Kind of test: Post-emergence biological efficacy. As to the method:
as §1, with “Chenopodium album (CHEAL),” for “Lolium perenne (LOLPE),”, “(IPOHE), Eleusine indica (ELEIN), Lolium perenne (LOLPE), Digitaria sanguinalis (DIGSA),” for “(IPOHE),”, “14 days” for “one day”, “compound. The test plants were then grown under controlled conditions in the glasshouse (at 24/18° C., day/night; 15 hours light; 50% humidity) and watered twice daily. After 13 days the test was evaluated (100=total damage to plant; 0=no damage to plant).” for “compound.”

Test [14] relates to Echinochloa crus-galli (ECHCG). Kind of test: Post-emergence biological efficacy. The procedure: as §1, with “Chenopodium album (CHEAL),” for “Lolium perenne (LOLPE),”, “(IPOHE), Eleusine indica (ELEIN), Lolium perenne (LOLPE), Digitaria sanguinalis (DIGSA),” for “(IPOHE),”, “14 days” for “one day”, “compound. The test plants were then grown under controlled conditions in the glasshouse (at 24/18° C., day/night; 15 hours light; 50% humidity) and watered twice daily. After 13 days the test was evaluated (100=total damage to plant; 0=no damage to plant).” for “compound.”

Another test deals with Eleusine indica (ELEIN). The test can be described thus: Post-emergence biological efficacy. As to the method: as §1, with “Chenopodium album (CHEAL),” for “Lolium perenne (LOLPE),”, “(IPOHE), Eleusine indica (ELEIN), Lolium perenne (LOLPE), Digitaria sanguinalis (DIGSA),” for “(IPOHE),”, “14 days” for “one day”, “compound. The test plants were then grown under controlled conditions in the glasshouse (at 24/18° C., day/night; 15 hours light; 50% humidity) and watered twice daily. After 13 days the test was evaluated (100=total damage to plant; 0=no damage to plant).” for “compound.”

SMILES strings stand for the structures.

For `CCNC(=O)C(C)(C)OC(=O)c1cc(-n2c(=O)n(C)c(=S)n(C)c2=O)c(F)cc1Cl` [Compound 1-168, [2-(ethylamino)-1,1-dimethyl-2-oxo-ethyl] 2-chloro-5-(3,5-dimethyl-2,6-dioxo-4-thioxo-1,3,5-triazinan-1-yl)-4-fluoro-benzoate], the pest or weed control at 250 g/ha in [1] is 100%; in [2] it was 90%; in the test with Setaria faberi (SETFA) [3] it was 100%; with Lolium perenne (LOLPE) [4], 100%; in [5], 100%; in [6], 100%. The pest or weed control at 250 g/ha (in test [7]; in [8]; in the test with Setaria faberi (SETFA) [9]; in test [10]; in test [11]; in the test with Lolium perenne (LOLPE) [12]) was 100% each time. Moreover, the pest or weed control at 250 g/ha (in test [13]; in [14]; in the test on Eleusine indica (ELEIN)) was 100% in each case.
